Experimental data from patent US20210040118A1, “IMMUNOMODULATORS, COMPOSITIONS AND METHODS THEREOF” (BETTA PHARMACEUTICALS CO., LTD, priority 2018, published 2021).
pIC50: −log10 of the molar value.

molecular target: T1, PD-1/PD-L1 (Homo sapiens, UniProt Q9NZQ7); assay: PD-1/PD-L1 homogenous time-resolved fluorescence (HTRF) binding assay; conditions: recombinant human PD-L1 (19-238) His-tag / human PD-1 (25-167) Fc tag, class symbols
T1 construct: Recombinant human PD-L1 protein (19-238) with a His-tag at the C-terminus; purchased AcroBiosystems PD1-H5229 (PD-L1); PD1-H5257 (PD-1)
T1 sequence (Q9NZQ7 19-238): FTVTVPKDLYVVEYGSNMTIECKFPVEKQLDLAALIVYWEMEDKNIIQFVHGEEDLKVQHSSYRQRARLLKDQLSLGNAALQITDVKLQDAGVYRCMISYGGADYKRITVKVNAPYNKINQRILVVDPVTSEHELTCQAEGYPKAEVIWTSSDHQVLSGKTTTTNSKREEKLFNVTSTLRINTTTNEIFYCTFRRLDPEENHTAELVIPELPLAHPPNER
Protocol: Resolved Fluorescence (HTRF) Binding Assay
The assays were conducted in a standard black 384-well polystyrene plate with a final volume of 20 μL. Inhibitors were first serially diluted in DMSO and then added to the plate wells before the addition of other reaction components. The final concentration of DMSO in the assay was 1%. The assays were carried out at 25° C. in the PBS buffer (pH 7.4) with 0.05% Tween-20 and 0.1% BSA. Recombinant human PD-L1 protein (19-238) with a His-tag at the C-terminus was purchased from AcroBiosy stems (PD1-H5229). Recombinant human PD-1 protein (25-167) with Fc tag at the C-terminus was also purchased from AcroBiosystems (PD1-H5257). PD-L1 and PD-1 proteins were diluted in the assay buffer and 10 μL was added to the plate well. Plates were centrifuged and proteins were preincubated with inhibitors for 40 min. The incubation was followed by the addition of […] of HTRF detection buffer supplemented with Europium cryptate-labeled anti-human IgG (PerkinElmer-AD0212) specific for Fc and anti-His antibody conjugated to SureLight®-Allophycocyanin (APC, PerkinElmer-AD0059H). After centrifugation, the plate was incubated at 25° C. for 60 min. Before reading on a PHERAstar FS plate reader (665 nm/620 nm ratio). Final concentrations in the assay were […] PD1, 10 nM PD-L1, 1 nM europium anti-human IgG and 20 nM anti-His-Allophycocyanin. IC50 determination was performed by fitting the curve of percent control activity versus the log of the inhibitor concentration using the GraphPad Prism 5.0 software.
Data obtained for the Example compounds using the PD-1/PD-L1 homogenous time-resolved fluorescence (HTRF) binding assay described in Example A is provided in Table 4.

| pIC50 | Molecule |
| --- | --- |
| > 7.60 | 1,1′-bis((6,7-dihydro-4H-512-thiazolo[5,4-c]pyridin-2-yl)methyl)-4,4′-biindoline [Example 46] |
| > 7.60 | Cc1c(NC(=O)c2nnc([C@@H]3CCCN3)s2)cccc1-c1cccc(NC(=O)c2nnc([C@@H]3CCCN3)s2)c1C [Example 3, N,N′-(2,2′-dimethyl-[1,1′-biphenyl]-3,3′-diyl)bis(5-((S)-pyrrolidin-2-yl)-1,3,4-thiadiazole-2-carboxamide)] |
| > 7.60 | Cc1c(NC(=O)c2nc3c(s2)CN(CC(=O)O)CC3)cccc1-c1cccc(NC(=O)c2nc3c(s2)CN(CC(=O)O)CC3)c1C [Example 4, 2,2′-((((2,2′-dimethyl-[1,1′-biphenyl]-3,3′-diyl)bis(azanediyl))bis(carbonyl))bis(6,7-dihydrothiazolo[5,4-c]pyridine-2,5(4H)-diyl))diacetic acid] |
| 6.70 to 7.00 | Cc1c(-c2cccc(N(C)C(=O)c3cc4c(s3)CNCC4)c2C)cccc1N(C)C(=O)c1cn2c(n1)CNCC2 [Example 5, N-(2,2′-dimethyl-3′-(N-methyl-5,6,7,8-tetrahydroimidazo[1,2-a]pyrazine-2-carboxamido)-[1,1′-biphenyl]-3-yl)-N-methyl-4,5,6,7-tetrahydrothieno[2,3-c]pyridine-2-carboxamide] |
| > 7.60 | Cc1c(Nc2nccc3cc(CNCCO)cnc23)cccc1-c1cccc(Nc2nccc3cc(NCCO)cnc23)c1C [Example 6, 2-(((8-((3′-((3-((2-hydroxyethyl)amino)-1,7-naphthyridin-8-yl)amino)-2,2′-dimethyl-[1,1′-biphenyl]-3-yl)amino)-1,7-naphthyridin-3-yl)methyl)amino)ethan-1-ol] |
| > 7.60 | Cc1c(NC(=O)c2ncc(CNCCO)s2)cccc1-c1cccc(NC(=O)c2ncc(CNCCO)s2)c1C [Example 7, N,N′-(2,2′-dimethyl-[1,1′-biphenyl]-3,3′-diyl)bis(5-(((2-hydroxyethyl)amino)methyl)thiazole-2-carboxamide)] |
| > 7.60 | Cc1c(NC(=O)c2cn3c(n2)CNCC3)cccc1-c1cccc(NC(=O)c2cn3c(n2)CNCC3)c1C [Example 8, N,N′-(2,2′-dimethyl-[1,1′-biphenyl]-3,3′-diyl)bis(5,6,7,8-tetrahydroimidazo[1,2-a]pyrazine-2-carboxamide)] |
| > 7.60 | Cc1c(NC(=O)c2nnc([C@H](C)N)o2)cccc1-c1cccc(NC(=O)c2nnc([C@H](C)N)o2)c1C [Example 9, N,N′-(2,2′-dimethyl-[1,1′-biphenyl]-3,3′-diyl)bis(5-((S)-1-aminoethyl)-1,3,4-oxadiazole-2-carboxamide)] |
| > 7.60 | Cc1c(NC(=O)c2cn3c(n2)CNCC3)cccc1-c1cccc(NC(=O)c2nc3c(s2)CNCC3)c1C [Example 10, N-(2,2′-dimethyl-3′-(5,6,7,8-tetrahydroimidazo[1,2-a]pyrazine-2-carboxamido)-[1,1′-biphenyl]-3-yl)-4,5,6,7-tetrahydrothiazolo[5,4-c]pyridine-2-carboxamide] |
| 6.70 to 7.00 | Cc1c(NC(=O)c2nc3c(s2)CNCC3)cccc1-c1cccc(NC(=O)c2nc3ccc(N)cc3s2)c1C [Example 11, N-(3′-(6-aminobenzo[d]thiazole-2-carboxamido)-2,2′-dimethyl-[1,1′-biphenyl]-3-yl)-4,5,6,7-tetrahydrothiazolo[5,4-c]pyridine-2-carboxamide] |
| 7.00 to 7.60 | Cc1c(NC(=O)c2nc3cc(N)ccc3[nH]2)cccc1-c1cccc(NC(=O)c2nc3c(s2)CNCC3)c1C [Example 12, N-(3′-(5-amino-1H-benzo[d]imidazole-2-carboxamido)-2,2′-dimethyl-[1,1′-biphenyl]-3-yl)-4,5,6,7-tetrahydrothiazolo[5,4-c]pyridine-2-carboxamide] |
| 7.00 to 7.60 | Cc1c(NC(=O)c2nc3c(o2)CNCC3)cccc1-c1cccc(NC(=O)c2nc3c(o2)CNCC3)c1C [Example 13, N,N′-(2,2′-dimethyl-[1,1′-biphenyl]-3,3′-diyl)bis(4,5,6,7-tetrahydrooxazolo[5,4-c]pyridine-2-carboxamide)] |
| > 7.60 | Cc1c(NC(=O)c2nc3c(o2)CNCC3)cccc1-c1cccc(NC(=O)c2nc3c(s2)CNCC3)c1C [Example 14, N-(2,2′-dimethyl-3′-(4,5,6,7-tetrahydrothiazolo[5,4-c]pyridine-2-carboxamido)-[1,1′-biphenyl]-3-yl)-4,5,6,7-tetrahydrooxazolo[5,4-c]pyridine-2-carboxamide] |
| > 7.60 | Cc1c(NC(=O)c2cc3c(s2)CCNC3)cccc1-c1cccc(NC(=O)c2nc3c(s2)CNCC3)c1C [Example 15, N-(2,2′-dimethyl-3′-(4,5,6,7-tetrahydrothieno[3,2-c]pyridine-2-carboxamido)-[1,1′-biphenyl]-3-yl)-4,5,6,7-tetrahydrothiazolo[5,4-c]pyridine-2-carboxamide] |
| > 7.60 | Cc1c(NC(=O)c2nnc([C@H](C)N3CCCC[C@H]3C(=O)O)o2)cccc1-c1cccc(NC(=O)c2nnc([C@H](C)N3CCCC[C@H]3C(=O)O)o2)c1C [Example 16, (2S,2'S)-1,1′-((1S,1'S)-((((2,2′-dimethyl-[1,1′-biphenyl]-3,3′-diyl)bis(azanediyl))bis(carbonyl))bis(1,3,4-oxadiazole-5,2-diyl))bis(ethane-1,1-diyl))bis(piperidine-2-carboxylic acid)] |
| > 7.60 | Cc1c(NC(=O)c2nnc([C@H](C)N3CCCC[C@H]3C(=O)O)s2)cccc1-c1cccc(NC(=O)c2nnc([C@H](C)N3CCCC[C@H]3C(=O)O)s2)c1C [Example 17, (2S,2'S)-1,1′-((1S,1'S)-((((2,2′-dimethyl-[1,1′-biphenyl]-3,3′-diyl)bis(azanediyl))bis(carbonyl))bis(1,3,4-thiadiazole-5,2-diyl))bis(ethane-1,1-diyl))bis(piperidine-2-carboxylic acid)] |
| 7.00 to 7.60 | Cc1c(NC(=O)c2nnc(CN)o2)cccc1-c1cccc(NC(=O)c2nnc(CN)o2)c1C [Example 18, N,N′-(2,2′-dimethyl-[1,1′-biphenyl]-3,3′-diyl)bis(5-(aminomethyl)-1,3,4-oxadiazole-2-carboxamide)] |
| 7.00 to 7.60 | Cc1c(NC(=O)c2nnc(C(C)N)o2)cccc1-c1cccc(NC(=O)c2nnc(C(C)N)o2)c1C (centres unmarked) [Example 19, N,N′-(2,2′-dimethyl-[1,1′-biphenyl]-3,3′-diyl)bis(5-(1-aminoethyl)-1,3,4-oxadiazole-2-carboxamide)] |
| > 7.60 | Cc1c(NC(=O)c2nnc(CN)s2)cccc1-c1cccc(NC(=O)c2nnc(CN)s2)c1C [Example 20, N,N′-(2,2′-dimethyl-[1,1′-biphenyl]-3,3′-diyl)bis(5-(aminomethyl)-1,3,4-thiadiazole-2-carboxamide)] |
| 6.70 to 7.00 | Cc1c(-c2cccc(N(C)C(=O)c3nc4ccc(N)cc4s3)c2C)cccc1N(C)C(=O)c1nc2c(s1)CNCC2 [Example 21, N-(3′-(6-amino-N-methylbenzo[d]thiazole-2-carboxamido)-2,2′-dimethyl-[1,1′-biphenyl]-3-yl)-N-methyl-4,5,6,7-tetrahydrothiazolo[5,4-c]pyridine-2-carboxamide] |
| < 6.70 | Cc1c(-c2cccc(N(C)Cc3nc4ccc(N)cc4s3)c2C)cccc1N(C)Cc1nc2c(s1)CNCC2 [Example 22, N3-((6-aminobenzo[d]thiazol-2-yl)methyl)-N3,N3′,2,2′-tetramethyl-N3′-((4,5,6,7-tetrahydrothiazolo[5,4-c]pyridin-2-yl)methyl)-[1,1′-biphenyl]-3,3′-diamine] |
| 6.70 to 7.00 | Cc1c(-c2cccc(N(C)C(=O)c3nc4c(s3)CNCC4)c2C)cccc1N(C)C(=O)c1nc2c(s1)CNCC2 [Example 23, N,N′-(2,2′-dimethyl-[1,1′-biphenyl]-3,3′-diyl)bis(N-methyl-4,5,6,7-tetrahydrothiazolo[5,4-c]pyridine-2-carboxamide)] |

| Molecule | pIC50 |
| --- | --- |
| 2-((3′-(6,6-dimethyl-5,6,7,8-tetrahydro-614-1,6-naphthyridin-7-ylium-2-carboxamido)-2,2′-dimethyl-[1,1′-biphenyl]-3-yl)carbamoyl)-6,6-dimethyl-5,6,7,8-tetrahydro-1,6-naphthyridin-6-ium chloride [Example 171] | > 7.60 |

same assay, conditions: recombinant human PD-L1 (19-238) His-tag / human PD-1 (25-167) Fc tag, numeric values

| pIC50 | Molecule |
| --- | --- |
| 6.67 | Cc1c(NC(=O)c2nc3c(s2)CNCC3)cccc1-c1ccccc1 [Com. EX. No. 1, N-(2-methyl-[1,1′-biphenyl]-3-yl)-4,5,6,7-tetrahydrothiazolo[5,4-c]pyridine-2-carboxamide, reference compound] |
| 9.32 | Cc1c(NC(=O)c2nc3c(s2)CNCC3)cccc1-c1cccc(NC(=O)c2nc3c(s2)CNCC3)c1C [Example 1, N,N′-(2,2′-dimethyl-[1,1′-biphenyl]-3,3′-diyl)bis(4,5,6,7-tetrahydrothiazolo[5,4-c]pyridine-2-carboxamide)] |
| 9.13 | Cc1c(NC(=O)c2nc3c(s2)CN(C)CC3)cccc1-c1cccc(NC(=O)c2nc3c(s2)CN(C)CC3)c1C [Example 2, N,N′-(2,2′-dimethyl-[1,1′-biphenyl]-3,3′-diyl)bis(5-methyl-4,5,6,7-tetrahydrothiazolo[5,4-c]pyridine-2-carboxamide)] |
